Earlier results in US5496811A, “Submicron emulsions as ocular drug delivery vehicles” (priority 1992, dated 1996).

Row | solubility in oil (oil) | SMILES | solubility in water | solubility in alkaline solutions (alkaline solutions) | stability in alkaline solutions (alkaline solutions)
1 | sparingly soluble in oil | CCC1C(=O)OCC1Cc1cncn1C (centres unmarked) [Pilocarpine, 3-ethyldihydro-4-[(1-methyl-1H-imidazole-5-yl)methyl]-2(3H)-furanon] | soluble in water | – | –
2 | – | COc1ccc2c(c1)c(CC(=O)O)c(C)n2C(=O)c1ccc(Cl)cc1 [Indomethacin] | practically insoluble in water | soluble in alkaline solutions | unstable under these conditions
